Data: ChEMBL document CHEMBL2046321, “Molecular Docking and in Vitro Antileishmanial Evaluation of Chromene-2-thione Analogues” (ACS Med Chem Lett, 2012)

Key:
[1] = test system: Leishmania donovani; experiment: Antileishmanial activity against axenic amastigotes of Leishmania donovani LEM-138 (MHOM/IN/00/DEVI) by MTT assay; format: functional, organism-based
[2] = test system: Leishmania donovani; experiment: Antileishmanial activity against promastigotes of Leishmania donovani LEM-138 (MHOM/IN/00/DEVI) by MTT assay; format: functional, organism-based
[3] = test system: Leishmania donovani; experiment: Antileishmanial activity against amastigotes of Leishmania donovani LEM-138 (MHOM/IN/00/DEVI) infected in mouse J774A.1 cells after 72 hrs by Giemsa dye staining; format: functional, organism-based; conditions: J774.A1, 72 h
[4] = test system: Leishmania donovani; experiment: Ratio of IC50 for promastigotes of Leishmania donovani LEM-138 (MHOM/IN/00/DEVI) to IC50 for axenic amastigotes of Leishmania donovani LEM-138 (MHOM/IN/00/DEVI); format: functional
[5] = Cytotoxicity against human PBMC assessed as cell killing at IC50 after 48 hrs by MTT assay; conditions: PBMC (peripheral blood mononuclear cells)
[6] = Cytotoxicity against human PBMC assessed as cell killing at 2 times IC50 after 48 hrs by MTT assay; conditions: PBMC (peripheral blood mononuclear cells)

COc1cccc2cc(C(=O)c3ccco3)c(=S)oc12
IC50 [1]: 65 µM | IC50 [2]: 1220 µM | IC50 [3]: 26 µM | Ratio IC50 [4]: 18.8 | cell killing at 48 h [5]: 12.3% | cell killing at 48 h [6]: 26%

COc1cccc2cc(C(=O)c3ccc(C)cc3)c(=S)oc12
IC50 [1]: 446 µM | IC50 [2]: 744 µM | Ratio IC50 [4]: 1.7 | cell killing at 48 h [5]: 9.4% | cell killing at 48 h [6]: 33.1%

C[C@@H]1[C@H](O)[C@@H](C)/C=C/C=C/C=C/C=C/C=C/C=C/C=C/[C@H](O[C@@H]2O[C@H](C)[C@@H](O)[C@H](N)[C@@H]2O)C[C@@H]2O[C@](O)(C[C@@H](O)C[C@@H](O)[C@H](O)CC[C@@H](O)C[C@@H](O)CC(=O)O[C@H]1C)C[C@H](O)[C@H]2C(=O)O [AMPHOTERICIN B]
IC50 [1]: 0.061 µM | IC50 [2]: 0.465 µM | cell killing at 48 h [5]: 16% | cell killing at 48 h [6]: 24.4%

COc1ccc(C(=O)c2cc3cc(Br)ccc3oc2=S)cc1
IC50 [1]: 198 µM | IC50 [2]: 450 µM | IC50 [3]: 17 µM | Ratio IC50 [4]: 2.3 | cell killing at 48 h [5]: 32.9% | cell killing at 48 h [6]: 40.5%

COc1ccc(C(=O)c2cc3cccc(OC)c3oc2=S)cc1
IC50 [1]: 502 µM | IC50 [2]: 1400 µM | Ratio IC50 [4]: 2.8 | cell killing at 48 h [5]: 16.6% | cell killing at 48 h [6]: 14.8%

COc1cccc2cc(C(=O)c3ccc(Cl)cc3)c(=S)oc12
IC50 [1]: 73 µM | IC50 [2]: 48 µM | IC50 [3]: 24 µM | Ratio IC50 [4]: 0.66 | cell killing at 48 h [5]: 0.46% | cell killing at 48 h [6]: 20.2%

O=C(c1cccs1)c1cc2cc(Br)ccc2oc1=S
IC50 [1]: 83 µM | IC50 [2]: 4630 µM | Ratio IC50 [4]: 55.8 | cell killing at 48 h [5]: 10.9% | cell killing at 48 h [6]: 6.66%

COc1ccc(C(=O)c2cc3c(ccc4ccccc43)oc2=S)cc1
IC50 [1]: 221 µM | IC50 [2]: 335 µM | Ratio IC50 [4]: 1.5 | cell killing at 48 h [5]: 15.1% | cell killing at 48 h [6]: 27%

O=C(c1cccs1)c1cc2c(ccc3ccccc32)oc1=S
IC50 [1]: 36 µM | IC50 [2]: 97 µM | IC50 [3]: 22 µM | Ratio IC50 [4]: 2.7 | cell killing at 48 h [5]: 28.8% | cell killing at 48 h [6]: 24.6%

O=C(c1ccco1)c1cc2c(ccc3ccccc32)oc1=S
IC50 [1]: 37 µM | IC50 [2]: 2770 µM | Ratio IC50 [4]: 75 | cell killing at 48 h [5]: 12% | cell killing at 48 h [6]: 27.8%

COc1cccc2cc(C(=O)c3cccs3)c(=S)oc12
IC50 [1]: 927 µM | IC50 [2]: 4300 µM | Ratio IC50 [4]: 4.6 | cell killing at 48 h [5]: 11.1% | cell killing at 48 h [6]: 19.5%

O=C(c1ccco1)c1cc2cc(Br)ccc2oc1=S
IC50 [1]: 524 µM | IC50 [2]: 1030 µM | Ratio IC50 [4]: 2 | cell killing at 48 h [5]: 10.7% | cell killing at 48 h [6]: 17.6%
